Experimental data: ChEMBL document CHEMBL1127925, “Synthesis and in vitro antibacterial activity of new semi-synthetic noviosylcoumarin antibiotics: chemical modification at the C-3 ester” (1994)
In brackets after ≈: the same amount, converted by molar mass.

Experiments:
Type in all cases: functional
[1] = test system: Staphylococcus epidermidis; assay: In vitro antibacterial activity against Staphylococcus epidermidis A25441 was determined
[2] = test system: Staphylococcus aureus; assay: In vitro antibacterial activity against Staphylococcus aureus A20700 was determined
[3] = test system: Staphylococcus aureus; assay: In vitro antibacterial activity against Staphylococcus aureus A9537 was determined

| MIC [1] [mg/L] | MIC [2] [mg/L] | MIC [3] [mg/L] | SMILES |
| --- | --- | --- | --- |
| 8 (≈ 13.1 µM) | 4 (≈ 6.56 µM) | 0.03 (≈ 0.0492 µM) | COC1C(OC(=O)c2ccc(C)s2)C(O)C(Oc2ccc3c(O)c(NC(=O)c4ccccc4)c(=O)oc3c2C)OC1(C)C (stereo not drawn) |
| 8 (≈ 13.5 µM) | 8 (≈ 13.5 µM) | 2 (≈ 3.37 µM) | COC1C(OC(=O)c2cccn2C)C(O)C(Oc2ccc3c(O)c(NC(=O)c4ccccc4)c(=O)oc3c2C)OC1(C)C (stereo not drawn) |
| 8 (≈ 13.8 µM) | 8 (≈ 13.8 µM) | 8 (≈ 13.8 µM) | COC1C(OC(=O)c2ccco2)C(O)C(Oc2ccc3c(O)c(NC(=O)c4ccccc4)c(=O)oc3c2C)OC1(C)C (stereo not drawn) |
| 2 (≈ 2.93 µM) | 4 (≈ 5.85 µM) | 8 (≈ 11.7 µM) | COC1C(OC(=O)c2c(C)ncn2Cc2ccccc2)C(O)C(Oc2ccc3c(O)c(NC(=O)c4ccccc4)c(=O)oc3c2C)OC1(C)C (stereo not drawn) |
| 0.13 (≈ 0.219 µM) | 0.13 (≈ 0.219 µM) | 0.13 (≈ 0.219 µM) | COC1C(OC(=O)c2ccc(C)[nH]2)C(O)C(Oc2ccc3c(O)c(NC(=O)c4ccccc4)c(=O)oc3c2C)OC1(C)C (stereo not drawn) |
| 8 | 16 | 16 | COC1C(OC(=O)c2[nH]cnc2C)C(O)C(Oc2ccc3c(O)c(NC(=O)c4ccccc4)c(=O)oc3c2C)OC1(C)C.Cc1ccc(S(=O)(=O)O)cc1 (stereo not drawn) |
